Results reported in patent publication EP4810052A2, “HCRHR2 SELECTIVE POLYPEPTIDES” (Gubra A/S, priority 2023, dated 2026).
Like-named read-outs stand apart in the source and are kept apart here. Starred links: 1 amine or outer side, 2 acyl side, 3 side chain; linkers in the order of their positions; H or OH if unused. Non-standard residues stand in square brackets, D forms with d. Residues, ends and D or L forms follow the SMILES beside them. Groups on a side chain read outwards from the residue. *: point of attachment. C20 diacid = O=C(O)CCCCCCCCCCCCCCCCCCC(=O)*; γGlu = O=C(O)[C@H](CCC(=O)[*:2])N[*:1]; NMeI = CC[C@H](C)[C@H](NC)C(=O)O; Nle = CCCC[C@H](N)C(=O)O; AEEA = NCCOCCOCC(=O)O; Aib = CC(C)(N)C(=O)O

What was measured:
hCRHR2 = target: T1, hCRHR2 (Homo sapiens, UniProt Q13324); experiment: HTRF cAMP assay, determination of hCRHR2 potency (peptide libraries 5 conc., purified peptides 11 conc.); type: cell-based
T1 sequence (Q13324 1-411): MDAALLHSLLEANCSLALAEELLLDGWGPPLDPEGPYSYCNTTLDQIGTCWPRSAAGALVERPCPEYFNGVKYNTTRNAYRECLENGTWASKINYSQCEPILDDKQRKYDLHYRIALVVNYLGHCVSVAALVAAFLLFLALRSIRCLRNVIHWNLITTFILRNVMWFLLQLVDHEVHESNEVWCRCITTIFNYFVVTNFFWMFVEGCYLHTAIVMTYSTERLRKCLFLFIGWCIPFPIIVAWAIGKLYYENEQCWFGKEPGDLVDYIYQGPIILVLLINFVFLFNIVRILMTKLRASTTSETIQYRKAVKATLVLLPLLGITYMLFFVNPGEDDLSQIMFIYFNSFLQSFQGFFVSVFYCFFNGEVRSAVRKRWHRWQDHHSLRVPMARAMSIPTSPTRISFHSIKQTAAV
Procedure, shortened: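 CHO-K1 cells stably expressing human CRHR2 were thawed from frozen stocks immediately before use and assayed in suspension with agonist peptides. cAMP was measured by time-resolved FRET in a competitive immunoassay between cryptate-labelled anti-cAMP antibody and d2-labelled cAMP. EC50 values came from nonlinear regression, sigmoid variable-slope fit.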

hCRHR1 = target: T2, hCRHR1 (Homo sapiens, UniProt P34998); experiment: HTRF cAMP assay, determination of hCRHR1 potency (peptide libraries 5 conc., purified peptides 11 conc.); type: cell-based
T2 sequence (P34998 24-415): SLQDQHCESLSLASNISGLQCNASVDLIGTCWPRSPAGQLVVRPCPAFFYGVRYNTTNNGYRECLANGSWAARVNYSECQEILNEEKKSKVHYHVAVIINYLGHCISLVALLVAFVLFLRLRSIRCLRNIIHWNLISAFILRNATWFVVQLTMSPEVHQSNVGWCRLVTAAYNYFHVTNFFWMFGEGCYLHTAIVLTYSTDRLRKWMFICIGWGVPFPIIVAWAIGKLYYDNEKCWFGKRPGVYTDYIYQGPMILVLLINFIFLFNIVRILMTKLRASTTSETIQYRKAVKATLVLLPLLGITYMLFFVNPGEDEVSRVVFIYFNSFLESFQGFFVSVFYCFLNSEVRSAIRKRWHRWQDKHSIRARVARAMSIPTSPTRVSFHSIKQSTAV
Procedure, shortened: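 CHO-K1 cells stably expressing human CRHR1, thawed from frozen stocks just before use, were stimulated in suspension with agonist peptides. cAMP was measured by HTRF competitive immunoassay (cryptate anti-cAMP antibody vs d2-cAMP).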

[1] = library peptides, matched molecular pairs L vs Nle in position X^38, read-out: Potency hCRHR2 pEC50 (converted)
[2] = library peptides, matched molecular pairs L vs Nle in position X^38, read-out: Potency hCRHR1 pEC50 (converted)

SMILES | EC50 (hCRHR2; [1]) [nM] | EC50 (hCRHR1; [2]) [nM] | other results
CCCC[C@H](NC(=O)[C@@H](NC(=O)[C@H](CCC(=O)O)NC(=O)C(C)(C)NC(=O)[C@H](CC(N)=O)NC(=O)[C@@H](NC(=O)[C@H](CCCCNC(=O)COCCOCCNC(=O)COCCOCCNC(=O)CC[C@H](NC(=O)CC[C@H](NC(=O)CCCCCCCCCCCCCCCCCCC(=O)O)C(=O)O)C(=O)O)NC(=O)[C@H](C)NC(=O)[C@H](CCC(N)=O)NC(=O)[C@H](CCC(=O)O)NC(=O)[C@H](CCCNC(=N)N)NC(=O)[C@H](C)NC(=O)[C@H](C)NC(=O)[C@H](CCCNC(=N)N)NC(=O)[C@H](C)NC(=O)[C@H](CCCNC(=N)N)NC(=O)[C@H](C)NC(=O)[C@H](CCC(N)=O)NC(=O)[C@H](CCC(N)=O)NC(=O)[C@H](CC(C)C)NC(=O)[C@H](CC(C)C)NC(=O)[C@@H](NC(=O)[C@H](CCC(N)=O)NC(=O)[C@H](CC(C)C)NC(=O)[C@H](CC(C)C)NC(=O)CNC(=O)[C@@H](NC(=O)[C@@H]1CCCN1C(=O)[C@@H](NC(=O)[C@H](CC(=O)O)NC(=O)[C@H](CC(C)C)NC(=O)[C@H](CO)NC(=O)[C@H](CC(C)C)NC(=O)[C@@H](NC(=O)[C@@H](NC)[C@@H](C)CC)C(C)C)C(C)C)[C@@H](C)CC)[C@@H](C)CC)[C@@H](C)O)[C@@H](C)CC)C(=O)N[C@@H](C)C(=O)N[C@@H](CCC(=O)O)C(=O)N[C@H](C(N)=O)C(C)C [compound 202] (H-[NMeI]VLSLDVPIGLLQILLQQARARAAREQAK([AEEA-AEEA-γGlu-γGlu-C20 diacid])TN[Aib]EI[Nle]AEV-NH2) | – | – | EC50 (hCRHR2; Table 4, library peptides having X^38 = Nle, read-out: hCRHR2 pEC50 (converted)): 0.0251 nM; EC50 (hCRHR1; Table 4, library peptides having X^38 = Nle, read-out: hCRHR1 pEC50 (converted)): 794 nM
CC[C@H](C)[C@H](N)C(=O)N[C@H](C(=O)N[C@@H](CC(C)C)C(=O)N[C@@H](CO)C(=O)N[C@@H](CC(C)C)C(=O)N[C@@H](CC(=O)O)C(=O)N[C@H](C(=O)N1CCC[C@H]1C(=O)N[C@H](C(=O)NCC(=O)N[C@@H](CC(C)C)C(=O)N[C@@H](CC(C)C)C(=O)N[C@@H](CCC(N)=O)C(=O)N[C@H](C(=O)N[C@@H](CC(C)C)C(=O)N[C@@H](CC(C)C)C(=O)N[C@@H](CCC(=O)O)C(=O)N[C@@H](CCC(N)=O)C(=O)N[C@@H](C)C(=O)N[C@@H](CCCNC(=N)N)C(=O)N[C@@H](C)C(=O)N[C@@H](CCCNC(=N)N)C(=O)N[C@@H](C)C(=O)N[C@@H](CCC(N)=O)C(=O)N[C@@H](CCCNC(=N)N)C(=O)N[C@@H](CCC(=O)O)C(=O)N[C@@H](CCC(N)=O)C(=O)N[C@@H](C)C(=O)N[C@@H](CCCCNC(=O)COCCOCCNC(=O)COCCOCCNC(=O)CC[C@H](NC(=O)CC[C@H](NC(=O)CCCCCCCCCCCCCCCCCCC(=O)O)C(=O)O)C(=O)O)C(=O)N[C@H](C(=O)N[C@@H](CC(N)=O)C(=O)N[C@@H](C)C(=O)N[C@@H](CCC(=O)O)C(=O)N[C@H](C(=O)N[C@@H](CC(C)C)C(=O)N[C@@H](C)C(=O)N[C@@H](CCC(=O)O)C(=O)N[C@H](C(N)=O)[C@@H](C)CC)[C@@H](C)CC)[C@@H](C)O)[C@@H](C)CC)[C@@H](C)CC)C(C)C)C(C)C [compound 64] (H-IVLSLDVPIGLLQILLEQARARAQREQAK([AEEA-AEEA-γGlu-γGlu-C20 diacid])TNAEILAEI-NH2) | 0.126 | 25100 | –
CC[C@H](C)[C@H](N)C(=O)N[C@H](C(=O)N[C@@H](CC(C)C)C(=O)N[C@@H](CO)C(=O)N[C@@H](CC(C)C)C(=O)N[C@@H](CC(=O)O)C(=O)N[C@H](C(=O)N1CCC[C@H]1C(=O)N[C@H](C(=O)NCC(=O)N[C@@H](CC(C)C)C(=O)N[C@@H](CC(C)C)C(=O)N[C@@H](CCC(N)=O)C(=O)N[C@H](C(=O)N[C@@H](CC(C)C)C(=O)N[C@@H](CC(C)C)C(=O)N[C@@H](CCC(=O)O)C(=O)N[C@@H](CCC(N)=O)C(=O)N[C@@H](C)C(=O)N[C@@H](CCCNC(=N)N)C(=O)N[C@@H](C)C(=O)N[C@@H](CCCNC(=N)N)C(=O)N[C@@H](CCC(N)=O)C(=O)N[C@@H](C)C(=O)N[C@@H](CCCNC(=N)N)C(=O)N[C@@H](CCC(=O)O)C(=O)N[C@@H](CCC(N)=O)C(=O)N[C@@H](C)C(=O)N[C@@H](CCCCNC(=O)COCCOCCNC(=O)COCCOCCNC(=O)CC[C@H](NC(=O)CC[C@H](NC(=O)CCCCCCCCCCCCCCCCCCC(=O)O)C(=O)O)C(=O)O)C(=O)N[C@H](C(=O)N[C@@H](CC(N)=O)C(=O)N[C@@H](C)C(=O)N[C@@H](CCC(=O)O)C(=O)N[C@H](C(=O)N[C@@H](CC(C)C)C(=O)N[C@@H](C)C(=O)N[C@@H](CCC(=O)O)C(=O)N[C@H](C(N)=O)[C@@H](C)CC)[C@@H](C)CC)[C@@H](C)O)[C@@H](C)CC)[C@@H](C)CC)C(C)C)C(C)C [SEQ ID NO: 29] (H-IVLSLDVPIGLLQILLEQARARQAREQAK([AEEA-AEEA-γGlu-γGlu-C20 diacid])TNAEILAEI-NH2) | – | – | EC50 (hCRHR2; Table 3, matched molecular pairs X^38 L vs Nle, peptide library of Example 4, read-out: hCRHR2 pEC50 (converted)): 0.251 nM; EC50 (hCRHR1; Table 3, matched molecular pairs X^38 L vs Nle, peptide library of Example 4, read-out: hCRHR1 pEC50 (converted)): 39800 nM
CCCC[C@H](NC(=O)[C@@H](NC(=O)[C@H](CCC(=O)O)NC(=O)[C@H](C)NC(=O)[C@H](CC(N)=O)NC(=O)[C@@H](NC(=O)[C@H](CCCCNC(=O)COCCOCCNC(=O)COCCOCCNC(=O)CC[C@H](NC(=O)CC[C@H](NC(=O)CCCCCCCCCCCCCCCCCCC(=O)O)C(=O)O)C(=O)O)NC(=O)[C@H](C)NC(=O)[C@H](CCC(N)=O)NC(=O)[C@H](CCC(N)=O)NC(=O)[C@H](CCCNC(=N)N)NC(=O)[C@H](CC(C)C)NC(=O)[C@H](C)NC(=O)[C@H](CCC(=O)O)NC(=O)[C@H](C)NC(=O)[C@H](CCCNC(=N)N)NC(=O)[C@H](C)NC(=O)[C@H](CCC(N)=O)NC(=O)[C@H](CCC(=O)O)NC(=O)[C@H](CC(C)C)NC(=O)[C@H](CC(C)C)NC(=O)[C@@H](NC(=O)[C@H](CCC(N)=O)NC(=O)[C@H](CC(C)C)NC(=O)[C@H](CC(C)C)NC(=O)CNC(=O)[C@@H](NC(=O)[C@@H]1CCCN1C(=O)[C@@H](NC(=O)[C@H](CC(=O)O)NC(=O)[C@H](CC(C)C)NC(=O)[C@H](CO)NC(=O)[C@H](CC(C)C)NC(=O)[C@@H](NC(=O)[C@@H](N)[C@@H](C)CC)C(C)C)C(C)C)[C@@H](C)CC)[C@@H](C)CC)[C@@H](C)O)[C@@H](C)CC)C(=O)N[C@@H](C)C(=O)N[C@@H](CCC(=O)O)C(=O)N[C@H](C(N)=O)C(C)C [compound 59] (H-IVLSLDVPIGLLQILLEQARAEALRQQAK([AEEA-AEEA-γGlu-γGlu-C20 diacid])TNAEI[Nle]AEV-NH2) | 0.158 | 5.01 | –
CC[C@H](C)[C@H](N)C(=O)N[C@H](C(=O)N[C@@H](CC(C)C)C(=O)N[C@@H](CO)C(=O)N[C@@H](CC(C)C)C(=O)N[C@@H](CC(=O)O)C(=O)N[C@H](C(=O)N1CCC[C@H]1C(=O)N[C@H](C(=O)NCC(=O)N[C@@H](CC(C)C)C(=O)N[C@@H](CC(C)C)C(=O)N[C@@H](CCC(N)=O)C(=O)N[C@H](C(=O)N[C@@H](CC(C)C)C(=O)N[C@@H](CC(C)C)C(=O)N[C@@H](CCC(=O)O)C(=O)N[C@@H](CCC(N)=O)C(=O)N[C@@H](C)C(=O)N[C@@H](CCCNC(=N)N)C(=O)N[C@@H](C)C(=O)N[C@@H](CCC(N)=O)C(=O)N[C@@H](C)C(=O)N[C@@H](C)C(=O)N[C@@H](CCCNC(=N)N)C(=O)N[C@@H](CCC(=O)O)C(=O)N[C@@H](CCC(N)=O)C(=O)N[C@@H](C)C(=O)N[C@@H](CCCCNC(=O)COCCOCCNC(=O)COCCOCCNC(=O)CC[C@H](NC(=O)CC[C@H](NC(=O)CCCCCCCCCCCCCCCCCCC(=O)O)C(=O)O)C(=O)O)C(=O)N[C@H](C(=O)N[C@@H](CC(N)=O)C(=O)N[C@@H](C)C(=O)N[C@@H](CCC(=O)O)C(=O)N[C@H](C(=O)N[C@@H](CC(C)C)C(=O)N[C@@H](C)C(=O)N[C@@H](CCC(=O)O)C(=O)N[C@H](C(N)=O)C(C)C)[C@@H](C)CC)[C@@H](C)O)[C@@H](C)CC)[C@@H](C)CC)C(C)C)C(C)C [compound 62] (H-IVLSLDVPIGLLQILLEQARAQAAREQAK([AEEA-AEEA-γGlu-γGlu-C20 diacid])TNAEILAEV-NH2) | 0.316 | 25100 | –
